Measured values reported in patent US7541156B1, “Method of identifying antinociceptive compounds using protease activated receptor-2” (priority 2000, dated 2009).
Entries after “also recorded” stand apart in the source; their conditions may differ.

System: cultured adult rat thoracic DRG neurons
Assay: CGRP release assay in cultured DRG neurons
Assay type: cell-based
Protocol: Cell Culture. Primary cultures of rat DRG neurons were prepared from male adult Sprague Dawley rats (200-250 gm). Following enzymatic treatment and dissociation, neurons were spun through a percoll cushion (Hofbauer et al. 1998) and were plated at a density of 10,000-20,000 neurons/well of a 48 well tissue culture plate. Cultures were maintained in DME+10% FCS supplemented with penicillin/streptomycin, 150 μM uridine and 50 μM 5-fluoro-2-deoxyuridine (Nguyen et al. 1999). NGF (murine, recombinant, 2.5S; Promega, Madison, Wis.) was used at 50 ng/ml. Neurons were treated for five days before release experiments or Calcium-imaging studies were performed.
CGRP release assay. Immunoreactive calcitonin gene-related peptide (IR-CGRP) release from DRG cultures was performed as described by Hingtgen et al. (1995). Briefly, neuron cultures were washed with Release Buffer (RB) (25 mM Hepes, pH 7.4, 135 mM NaCl, 3.5 mM KCl, 2.5 mM CaCl2, 1 mM MgCl2, 3.3 mM Glucose, 0.1% BSA, 1 μM phosphoamidon), and were incubated for 10 min at 37° C. in RB plus 0.1% ethanol (Capsaicin vehicle) to measure basal CGRP release. Fresh RB containing the appropriate concentration of activating peptide (AcPep) or control peptide (CoPep) was added for an additional 10 minutes. Peptide treatment was followed by a 10 minute incubation with an appropriate dose of Capsaicin or KCl. IR-CGRP released by neurons was measured by ELISA. Activating peptide and control peptide were prepared by standard solid phase synthesis procedures by the UTMB Core Protein Facility.
CGRP Quantification. CGRP was quantified in a standard sandwich ELISA. In brief, 96-well “U” bottom microtiter ELISA plates (Dynex, Chantilly, Va.) were coated with affinity purified polyclonal rabbit antibody to rat CGRP (Peninsula Labs, Belmont, Calif.) at 3 μg/ml in 0.125M borate buffered saline (pH 8.1) (100 μl/well). The plates were incubated overnight at 37° C. The next day, the plates were washed three times with saline containing 0.05% Tween-20. Purified rat CGRP (Peninsula Labs) was used at a previously standardized concentration range of 25-1 ng/ml in a four-fold dilution to generate a standard curve. An equal volume of the sample was added in duplicate to a seventy-five μl/well of Tween-PBS (pH 7.1) and the plates were incubated for two hours on a shaker at room temperature. The plates were washed 3 times with Tween-PBS and 100 μl/well (0.2 mg/ml; 1:500 dilution) of in-house biotinylated, rabbit anti rat CGRP IgG (Peninsula Labs) was applied and incubated for two hours at room temperature. After three washes 150 μl of 1:1000 diluted streptavidine-horseradish peroxidase conjugate (Zymed, San Fransisco, Calif.) was added to each well and the plates were incubated for 90 min at room temperature. One-hundred-fifty μl/well of the substrate ortho-phenylene diamine dihydrochloride (Sigma Chemicals, St. Louis, Mo.) 0.4 mg/ml in citrate buffer (pH 4.9) was added after plates were washed three more times. Forty μl/100 ml of 30% H2O2 was added fresh to the citrate buffer just before adding to the wells to activate the coloring reaction. The reaction was stopped with 5N H2SO4 (50 μl/well) and the plates were read at 490 nm in an automated ELISA reader (Bio-Tek Instruments, Inc., Winooski, VE). The OD values were plotted against the CGRP standard curve and CGRP immunoreactivity was quantified using the appropriate formula and expressed as nanogram/ml.
Statistics. Release data are presented as the mean± standard error of the mean (SEM) of wells from three separate experiments. To compare the effects of activating peptide and control peptide on subsequent evoked release, an overall test based on the analysis of variance was performed (ANOVA). […] Intraductal injection studies were analyzed using a repeated measure ANOVA and individual means were compared using a Newman-Keuls multiple comparison test. Significance levels were set at p<0.05. […]

SLIGRL (PEPTIDE (1)..(6) PAR-2 activating peptide; listed as Rattus sp.) [AcPep]
CGRP release induced by Capsaicin (50 nM) (10 min pretreatment with peptide 10 μM, then Capsaicin 50 nM for 10 min in presence of peptide, mean of wells, three experiments): 7.3 ng/mL | CGRP release induced by KCl (70 mM) (10 min pretreatment with peptide 10 μM, then KCl 70 mM for 10 min in presence of peptide, mean of wells, three experiments): 2.7 ng/mL | CGRP release by peptide alone (basal release) (peptide 10 μM alone, 10 minute incubation): did not significantly increase CGRP release; also recorded: does not induce CGRP release; also recorded: no effect on basal CGRP release | KCl evoked IR-CGRP release, in words, versus CoPep (pre-treatment 10 μM for 10 minutes, KCl 70 mM): significantly higher increase; also recorded: significantly enhances | Capsaicin-evoked CGRP release, in words, versus CoPep (pretreatment 10 μM for 10 minutes, Capsaicin 50 nM): significant increase; also recorded: significantly enhances
